Data reported in patent US10519154B2, “7-substituted 1-pyridyl-naphthyridine-3-carboxylic acid amides and use thereof” (Bayer Pharma Aktiengesellschaft, priority 2016, dated 2019).

Molecular target: T1, human M2 receptor (Homo sapiens, UniProt P08172)
T1 sequence (P08172 1-466): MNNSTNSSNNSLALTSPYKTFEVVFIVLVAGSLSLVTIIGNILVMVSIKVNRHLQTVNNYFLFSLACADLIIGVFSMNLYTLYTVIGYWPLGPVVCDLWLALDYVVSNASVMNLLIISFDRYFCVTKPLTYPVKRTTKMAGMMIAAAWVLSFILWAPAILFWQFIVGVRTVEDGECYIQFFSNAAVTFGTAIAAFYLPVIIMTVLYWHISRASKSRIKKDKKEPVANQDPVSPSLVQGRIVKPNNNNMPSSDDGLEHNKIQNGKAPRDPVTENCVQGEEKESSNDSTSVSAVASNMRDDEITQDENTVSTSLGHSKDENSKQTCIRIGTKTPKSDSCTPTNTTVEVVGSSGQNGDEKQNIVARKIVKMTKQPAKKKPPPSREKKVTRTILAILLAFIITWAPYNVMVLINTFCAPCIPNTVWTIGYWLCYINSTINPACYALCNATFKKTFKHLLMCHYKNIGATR
Assay: Functional M2-GIRK1/4 activation test: allosteric potency (EC50) and efficiency
Conditions: for EC50: Receptor activity EC50, CHO-DUKX-M2-GIRK cells, acetylcholine at EC20, in some cases mean of two or more determinations; for Emax: read-out: Efficiency, boosting of the acetylcholine effect at EC20 acetylcholine concentration

Compound	EC50 [nM]	Emax (CHO-DUKX-M2-GIRK cells) [%]	Efficiency (boosting of the acetylcholine effect at EC20 acetylcholine concentration, CHO-DUKX-M2-GIRK cells) [%]
O=C(N[C@H](C1CC1)C(F)(F)F)c1cn(-c2ncc(F)cc2Cl)c2nc(N3C[C@@H](O)[C@H](O)C3)ccc2c1=O [Example 51, 1-(3-Chloro-5-fluoropyridin-2-yl)-N-[(1R)-1-cyclopropyl-2,2,2-trifluoroethyl]-7-[(3R,4R)-3,4-dihydroxypyrrolidin-1-yl]-4-oxo-1,4-dihydro-1,8-naphthyridine-3-carboxamide]	527	84.3	
CC(C)(C)[C@@H](NC(=O)c1cn(-c2ncc(F)cc2F)c2nc(N3CCN(CCO)C3=O)ccc2c1=O)C(F)(F)F [Example 126, 1-(3,5-Difluoropyridin-2-yl)-7-[3-(2-hydroxyethyl)-2-oxoimidazolidin-1-yl]-4-oxo-N-[(2R)-1,1,1-trifluoro-3,3-dimethylbutan-2-yl]-1,4-dihydro-1,8-naphthyridine-3-carboxamide]	87	98	
C[C@H](NC(=O)c1cn(-c2ncc(F)cc2F)c2nc(N3C[C@@H](O)CC3=O)ccc2c1=O)C(F)(F)F [Example 3, 1-(3,5-Difluoropyridin-2-yl)-7-[(4S)-4-hydroxy-2-oxopyrrolidin-1-yl]-4-oxo-N-[(2S)-1,1,1-trifluoropropan-2-yl]-1,4-dihydro-1,8-naphthyridine-3-carboxamide]	240	97.8	
O=C(N[C@H](C1CC1)C(F)(F)F)c1cn(-c2ncccc2F)c2nc(N3CC4C[C@@]4(O)C3)ccc2c1=O (single isomer, unassigned) [Example 136]	64	97.5	
CC1C(O)C2(CC2)C(=O)N1c1ccc2c(=O)c(C(=O)N[C@@H](C3CC3)C(F)(F)F)cn(-c3ncc(F)cc3F)c2n1 (stereo partly drawn) [Example 115, N-[(1S)-1-Cyclopropyl-2,2,2-trifluoroethyl]-1-(3,5-difluoropyridin-2-yl)-7-[7-hydroxy-6-methyl-4-oxo-5-azaspiro[2.4]hept-5-yl]-4-oxo-1,4-dihydro-1,8-naphthyridine-3-carboxamide]	150	89	
O=C(NC12CC(C1)C2)c1cn(-c2ncc(F)cc2F)c2nc(N3C[C@@H](O)CC3=O)ccc2c1=O [Example 101, N-(Bicyclo[1.1.1]pent-1-yl)-1-(3,5-difluoropyridin-2-yl)-7-[(4S)-4-hydroxy-2-oxopyrrolidin-1-yl]-4-oxo-1,4-dihydro-1,8-naphthyridine-3-carboxamide]	585	78.5	
CC[C@H](NC(=O)c1cn(-c2ncc(F)cc2F)c2nc(N3CC(O)C(C)C3=O)ccc2c1=O)C(F)(F)F (single isomer, unassigned) [Example 110]	190		94.50
O=C(N[C@H](C1CC1)C(F)(F)F)c1cn(-c2ncc(F)cc2F)c2nc(N3CC4CC4(O)C3)ccc2c1=O (single isomer, unassigned) [Example 38]	18	98	
CC[C@H](NC(=O)c1cn(-c2ncc(F)cc2F)c2nc(N3CCCN(CCO)C3=O)ccc2c1=O)C(F)(F)F [Example 120, 1-(3,5-Difluoropyridin-2-yl)-7-[3-(2-hydroxyethyl)-2-oxotetrahydropyrimidin-1(2H)-yl]-4-oxo-N-[(2S)-1,1,1-trifluorobutan-2-yl]-1,4-dihydro-1,8-naphthyridine-3-carboxamide]	400	100	
CC1C(=O)N(c2ccc3c(=O)c(C(=O)N[C@@H](C4CC4)C(F)(F)F)cn(-c4ncc(F)cc4F)c3n2)CC1O (mixture of isomers) [Example 104, N-[(1S)-1-Cyclopropyl-2,2,2-trifluoroethyl]-1-(3,5-difluoropyridin-2-yl)-7-[4-hydroxy-3-methyl-2-oxopyrrolidin-1-yl]-4-oxo-1,4-dihydro-1,8-naphthyridine-3-carboxamide]	250	98.5	

Continued by falling EC50, values first:

EC50 [nM]	Emax (CHO-DUKX-M2-GIRK cells) [%]	Efficiency (boosting of the acetylcholine effect at EC20 acetylcholine concentration, CHO-DUKX-M2-GIRK cells) [%]	Compound
520	89		CC[C@H](NC(=O)c1cn(-c2c(F)cncc2F)c2nc(N3CCNC3=O)ccc2c1=O)C(F)(F)F [Example 128, 1-(3,5-Difluoropyridin-4-yl)-4-oxo-7-(2-oxoimidazolidin-1-yl)-N-[(2S)-1,1,1-trifluorobutan-2-yl]-1,4-dihydro-1,8-naphthyridine-3-carboxamide]
260	100		CC(NC(=O)c1cn(-c2ncc(F)cc2F)c2nc(N3C[C@@H](O)CC3=O)ccc2c1=O)C(F)(F)C(F)(F)F (single isomer, unassigned) [Example 77]
240	98		O=C(N[C@@H](C1CC1)C(F)(F)F)c1cn(-c2ncc(F)cc2F)c2nc(N3CCCN(CCO)C3=O)ccc2c1=O [Example 123, N-[(1S)-1-Cyclopropyl-2,2,2-trifluoroethyl]-1-(3,5-difluoropyridin-2-yl)-7-[3-(2-hydroxyethyl)-2-oxotetrahydropyrimidin-1(2H)-yl]-4-oxo-1,4-dihydro-1,8-naphthyridine-3-carboxamide]
200	100		CC(NC(=O)c1cn(-c2ncc(F)cc2F)c2nc(N3C[C@@H](O)[C@H](O)C3)ccc2c1=O)(C1CC1)C(F)(F)F (stereo partly drawn) [Example 153]
185	84		CC[C@H](NC(=O)c1cn(-c2ncc(F)cc2F)c2nc(N3CC(O)C(C)C3=O)ccc2c1=O)C(F)(F)F (mixture of isomers) [Example 108, 1-(3,5-Difluoropyridin-2-yl)-7-[4-hydroxy-3-methyl-2-oxopyrrolidin-1-yl]-4-oxo-N-[(2S)-1,1,1-trifluorobutan-2-yl]-1,4-dihydro-1,8-naphthyridine-3-carboxamide]
170	99.5		O=C(NC(C1CC1)C(F)(F)F)c1cn(-c2ncc(F)cc2F)c2nc(N3C[C@@H](O)[C@@H](O)C3)ccc2c1=O (stereo partly drawn) [Example 35, N-[1-Cyclopropyl-2,2,2-trifluoroethyl]-1-(3,5-difluoropyridin-2-yl)-7-[(3R,4S)-3,4-dihydroxypyrrolidin-1-yl]-4-oxo-1,4-dihydro-1,8-naphthyridine-3-carboxamide]
155	90.5		O=C(NC(CC(F)(F)F)C(F)(F)F)c1cn(-c2ncc(F)cc2F)c2nc(N3C[C@@H](O)[C@H](O)C3)ccc2c1=O (stereo partly drawn) [Example 160, 1-(3,5-Difluoropyridin-2-yl)-7-[(3R,4R)-3,4-dihydroxypyrrolidin-1-yl]-N-[1,1,1,4,4,4-hexafluorobutan-2-yl]-4-oxo-1,4-dihydro-1,8-naphthyridine-3-carboxamide]
130	100		CC(C)(NC(=O)c1cn(-c2ncc(F)cc2F)c2nc(N3CC(CO)(CO)C3)ccc2c1=O)C(F)(F)C(F)(F)F [Example 184, 7-[3,3-Bis(hydroxymethyl)azetidin-1-yl]-1-(3,5-difluoropyridin-2-yl)-4-oxo-N-(3,3,4,4,4-pentafluoro-2-methylbutan-2-yl)-1,4-dihydro-1,8-naphthyridine-3-carboxamide]
121	100		CC(NC(=O)c1cn(-c2ncc(F)cc2F)c2nc(N3CCC(CO)(CO)CC3)ccc2c1=O)C(F)(F)C(F)(F)F (single isomer, unassigned) [Example 185, 7-[4,4-Bis(hydroxymethyl)piperidin-1-yl]-1-(3,5-difluoropyridin-2-yl)-4-oxo-N-[3,3,4,4,4-pentafluorobutan-2-yl]-1,4-dihydro-1,8-naphthyridine-3-carboxamide]
111	96.5		CC1C(O)C2(CC2)C(=O)N1c1ccc2c(=O)c(C(=O)N[C@H](C3CC3)C(F)(F)F)cn(-c3ncc(F)cc3F)c2n1 (stereo partly drawn) [Example 114, N-[(1R)-1-Cyclopropyl-2,2,2-trifluoroethyl]-1-(3,5-difluoropyridin-2-yl)-7-[7-hydroxy-6-methyl-4-oxo-5-azaspiro[2.4]hept-5-yl]-4-oxo-1,4-dihydro-1,8-naphthyridine-3-carboxamide]
83	100		O=C(NC(c1ccc(Cl)cc1)C(F)(F)F)c1cn(-c2ncc(F)cc2F)c2nc(N3C[C@@H](O)CC3=O)ccc2c1=O (stereo partly drawn) [Example 8, N-[1-(4-Chlorophenyl)-2,2,2-trifluoroethyl]-1-(3,5-difluoropyridin-2-yl)-7-[(4S)-4-hydroxy-2-oxopyrrolidin-1-yl]-4-oxo-1,4-dihydro-1,8-naphthyridine-3-carboxamide]
63	100		O=C(NC1(C(F)(F)F)CCCC1)c1cn(-c2ncc(F)cc2F)c2nc(N3C[C@@H](O)[C@H](O)C3)ccc2c1=O [Example 87, 1-(3,5-Difluoropyridin-2-yl)-7-[(3R,4R)-3,4-dihydroxypyrrolidin-1-yl]-4-oxo-N-[1-(trifluoromethyl)cyclopentyl]-1,4-dihydro-1,8-naphthyridine-3-carboxamide]
55	98.5		O=C(NC(c1ccccc1Cl)C(F)(F)F)c1cn(-c2ncc(F)cc2F)c2nc(N3CCNC3=O)ccc2c1=O (racemic) [Example 147, N-[1-(2-Chlorophenyl)-2,2,2-trifluoroethyl]-1-(3,5-difluoropyridin-2-yl)-4-oxo-7-(2-oxoimidazolidin-1-yl)-1,4-dihydro-1,8-naphthyridine-3-carboxamide]
31	98.5		CC[C@@H](NC(=O)c1cn(-c2ncc(F)cc2F)c2nc(N3CC4CC4(O)C3)ccc2c1=O)C(F)(F)F (single isomer, unassigned) [Example 44]
